Consider twelve compounds from PubChem BioAssay AID180 (DTP/NCI, 2004).

Where “and” joins values, the source holds several entries; their conditions need not be identical. Identical values can stand only once.

In this assay the test system is BDF1 mice, Adenocarcinoma 755 s.c., tumor weight T/C. The assay can be described thus: NCI In Vivo Anticancer Drug Screen. Data for tumor model Adenocarcinoma 755 (subcutaneous) in B6D2F1 (BDF1) mice. To be noted: endpoint: mean tumor weight, schedule: Q01DX011 (ip), higher = larger tumour. The procedure, abridged:
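Readout: T/C, i.e. treated-group measurement over vehicle-control measurement. Endpoint is survival or tumor size in tumor-bearing mice given compound.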

The mark [1] stands for this setting: dose: 12.0 mg/kg/injection, vehicle: carboxymethylcellulose (CMC).
[2] abbreviates: dose: 50.0 mg/kg/injection, vehicle: other.
Where [3] appears, read: dose: 100.0 mg/kg/injection, vehicle: other.
The mark [4] stands for this setting: dose: 400.0 mg/kg/injection, vehicle: other.
Where [5] appears, read: dose: 19.0 mg/kg/injection, vehicle: carboxymethylcellulose (CMC).

One may read the T/C as the ratio of treated to control.

On to `O=c1ccn(C2OC(CO)C(O)C2O)c(=O)[nH]1` (configuration not stated), for which the T/C is 57 % of control (dose: 17.5 mg/kg/injection, vehicle: other); 39 % of control (dose: 35.0 mg/kg/injection, vehicle: other); 30 % of control (dose: 35.0 mg/kg/injection, vehicle: saline); 105 % of control (dose: 70.0 mg/kg/injection, vehicle: other); 75 % of control (dose: 70.0 mg/kg/injection, vehicle: saline); 82 % of control (dose: 140.0 mg/kg/injection, vehicle: other). The T/C is, setting by setting: (dose: 140.0 mg/kg/injection, vehicle: saline) 32 % of control; (dose: 280.0 mg/kg/injection, vehicle: other) 56 % of control; (dose: 280.0 mg/kg/injection, vehicle: saline) 42 % of control.
Take `CCCCCCCCCCCC[N+](C)(C)c1ncnc2nc[nH]c12`: the T/C is 103 % of control under setting [1]; 55 % of control (dose: 24.0 mg/kg/injection, vehicle: carboxymethylcellulose (CMC)); 13 % of control (dose: 48.0 mg/kg/injection, vehicle: carboxymethylcellulose (CMC)).
Take `CCCCNc1cc(=O)[nH]c(N)n1`: the T/C (dose: 55.0 mg/kg/injection, vehicle: methylcellulose (MC)) is 53 % of control.
Turning to `OCCOCCN1CCN(CCCN2c3ccccc3Sc3ccc(C(F)(F)F)cc32)CC1`, the T/C by setting is: (dose: 5.0 mg/kg/injection, vehicle: saline) 54 % of control and 75 % of control; (dose: 20.0 mg/kg/injection, vehicle: saline) 12 % of control and 29 % of control.
Turning to `CC(=O)Nc1c(Cl)c(Cl)c2c(c1Cl)C(=O)c1cc(Cl)ccc1-2`, the T/C is 57 % of control (dose: 50.0 mg/kg/injection, vehicle: methylcellulose (MC)); 100 % of control and 112 % of control under setting [2]; 65 % of control (dose: 100.0 mg/kg/injection, vehicle: methylcellulose (MC)); 65 % of control under setting [3]; 41 % of control and 64 % of control and 66 % of control under setting [4]; 59 % of control (dose: 800.0 mg/kg/injection, vehicle: other).
Take `N#Cc1cn(C2OC(CO)C(O)C2O)c2ncnc(N)c12` (configuration not stated): where the note is “dose: 0.15 mg/kg/injection, vehicle: carboxymethylcellulose (CMC)”, the T/C is 72 % of control.
With `O=C(OCC1OC(n2cnc3c(=S)nc[nH]c32)C(OC(=O)c2ccccc2)C1OC(=O)c1ccccc1)c1ccccc1` (configuration not stated), the T/C runs as follows: (dose: 8.0 mg/kg/injection, vehicle: carboxymethylcellulose (CMC)) 98 % of control; (dose: 15.0 mg/kg/injection, vehicle: carboxymethylcellulose (CMC)) 91 % of control; (dose: 31.0 mg/kg/injection, vehicle: carboxymethylcellulose (CMC)) 99 % of control; (dose: 32.0 mg/kg/injection, vehicle: carboxymethylcellulose (CMC)) 53 % of control; (dose: 50.0 mg/kg/injection, vehicle: carboxymethylcellulose (CMC)) 53 % of control; (dose: 100.0 mg/kg/injection, vehicle: carboxymethylcellulose (CMC)) 7 % of control. In addition, the T/C (dose: 125.0 mg/kg/injection, vehicle: carboxymethylcellulose (CMC)) was 2 % of control and 6 % of control and 12 % of control; the T/C (dose: 250.0 mg/kg/injection, vehicle: carboxymethylcellulose (CMC)) is 1 % of control.
In the case of `S=c1c2[nH]cnc2ncn1CCSC1=NC=NC2=NC=NC21` (configuration not stated), the T/C runs as follows: (dose: 4.0 mg/kg/injection, vehicle: methylcellulose (MC)) 61 % of control; (dose: 8.0 mg/kg/injection, vehicle: methylcellulose (MC)) 71 % of control; (dose: 16.0 mg/kg/injection, vehicle: methylcellulose (MC)) 19 % of control.
As for `CC(CN1CCN(C)CC1)CN1c2ccccc2Sc2ccc(C(F)(F)F)cc21` (configuration not stated), the T/C was 64 % of control (dose: 17.5 mg/kg/injection, vehicle: methylcellulose (MC)); 52 % of control (dose: 35.0 mg/kg/injection, vehicle: methylcellulose (MC)); 58 % of control (dose: 70.0 mg/kg/injection, vehicle: methylcellulose (MC)).
With `CC(C)CNS(=O)(=O)c1ncnc2nc[nH]c12`, the T/C reads like this: (dose: 6.0 mg/kg/injection, vehicle: carboxymethylcellulose (CMC)) 62 % of control; (dose: 6.0 mg/kg/injection, vehicle: other) 81 % of control; (dose: 12.0 mg/kg/injection, vehicle: other) 96 % of control; (dose: 12.5 mg/kg/injection, vehicle: carboxymethylcellulose (CMC)) 24 % of control; under setting [5], 12 % of control; (dose: 25.0 mg/kg/injection, vehicle: carboxymethylcellulose (CMC)) 8 % of control. Besides, the T/C by setting is: (dose: 25.0 mg/kg/injection, vehicle: other) 34 % of control; under setting [2], 6 % of control; (dose: 75.0 mg/kg/injection, vehicle: carboxymethylcellulose (CMC)) 2 % of control; under setting [3], 10 % of control.
Turning to `OC1c2cc(Cl)ccc2-c2c(Cl)cc(Cl)cc21` (configuration not stated), the T/C is 37 % of control under setting [2]; 41 % of control under setting [3]; 19 % of control (dose: 200.0 mg/kg/injection, vehicle: other); 10 % of control under setting [4].
For the compound `Cc1cc2nc3c(=O)[nH]c(=O)nc-3n(CC(O)C(O)C(O)C(O)CO)c2cc1C` (configuration not stated), the T/C is, setting by setting: under setting [1], 96 % of control and 111 % of control; (dose: 14.13 mg/kg/injection, vehicle: carboxymethylcellulose (CMC)) 91 % of control; under setting [5], 90 % of control and 76 % of control; (dose: 26.25 mg/kg/injection, vehicle: carboxymethylcellulose (CMC)) 79 % of control; (dose: 28.25 mg/kg/injection, vehicle: carboxymethylcellulose (CMC)) 122 % of control; (dose: 52.5 mg/kg/injection, vehicle: carboxymethylcellulose (CMC)) 95 % of control. Besides, the T/C was 60 % of control (dose: 56.5 mg/kg/injection, vehicle: carboxymethylcellulose (CMC)); 94 % of control (dose: 62.5 mg/kg/injection, vehicle: methylcellulose (MC)); 116 % of control (dose: 105.0 mg/kg/injection, vehicle: carboxymethylcellulose (CMC)); 62 % of control (dose: 113.0 mg/kg/injection, vehicle: carboxymethylcellulose (CMC)); 27 % of control (dose: 125.0 mg/kg/injection, vehicle: methylcellulose (MC)); 101 % of control (dose: 210.0 mg/kg/injection, vehicle: carboxymethylcellulose (CMC)).
